Patent US6835724B2, “Corticoid 17,21-dicarboxylic esters and corticosteroid 17-carboxylic ester 21-carbonic esters, processes for their preparation and pharmaceuticals containing these compounds” (Aventis Pharma Deutschland GmbH, priority 1993, dated 2004)

Tests used:
Carrageenan paw edema = assay: Systemic antiinflammatory effect following subcutaneous administration: Carrageenan paw edema in rats; assay type: in vivo, rat; conditions: for Increase in volume: 6 hours after carrageenan, control 0.58 ± 0.16; for systemic activity: summary in words
Source text: 2 a) Examining for systemic antiinflammatory effect in the “antiinflammatory effect following subcutaneous administration: Carrageenan paw edema in rats” test. The carrageenan paw edema test in rats in accordance with the method described by Winter et al., Proc. Soc. exp. Biol. (New York) 111, 544 (1962) was chosen as the test for the acute systemic antiinflammatory effect. […] Controls were only given sesame oil. The paw volumes are given in ml, x±s.

gluconeogenesis = assay: Systemic effect: gluconeogenesis in adrenalectomized rats; conditions: for Glycogen + glucose mg/100 g of liver: 6 hours, control 11.2 ± 1.7; for effect on new formation of glucose and glycogen: t test against control
Protocol: 2 b) Examining for systemic effect: gluconeogenesis in rats
A sensitive method for detecting systemic effects on carbohydrate metabolism is to examine the gluconeogenic effect of corticosteroids in the adrenalectomized rat.
Three days prior to the experiment, groups of in each case 6 rats are adrenalectomized under pentobarbital anesthesia and provided with 0.9% sodium chloride solution as drinking fluid. Two days later, i.e. 24 hours before initiating the experiment, the feed is removed in order to reduce the glycogen stores in the liver.
On the day of the experiment, the preparations under examination are administered subcutaneously, dissolved in sesame oil (2 ml/kg). Six hours later, the animals are decapitated, and in each case the liver is removed and 1 g thereof is taken up in 5 ml of 0.6 molar perchloric acid. After homogenization, the free glucose is measured in the supernatant from the centrifugation, while the centrifugation sediment (centrifugate; glycogen) is cleaved enzymically with amyloglucosidase, after which the glucose content is also measured in this fraction (Hexokinase method, Boehringer Mannheim).

rat croton oil ear edema = assay: Local antiinflammatory effect in rat croton oil ear edema following epicutaneous application; assay type: in vivo; conditions: for Inhibition in % / x ± s (mg), weight difference of treated and untreated ear disks: 4 h; for x ± s (mg), weight difference of treated and untreated ear disks: TPA irritant, control 21.2 ± 5.1; for local antiinflammatory effect: summary in words
Protocol: 1. Local antiinflammatory effect in rat croton oil ear edema following epicutaneous application […] The left ear remained untreated. […] The corticoids under examination were dissolved in this solution in the given final concentrations. Controls only received the TPA/solvent mixture. The animals were sacrificed using CO2 4 h after the epicutaneous treatment. Disks measuring 8 mm in diameter were punched out of the right (treated) and the left (untreated) ears and weighed immediately.

Structure (SMILES)	Increase in volume (Carrageenan paw edema; 0.3 mg/kg s.c.) [mL]	Increase in volume (Carrageenan paw edema; 3.0 mg/kg s.c.) [mL]	systemic activity (Carrageenan paw edema)	Glycogen + glucose mg/100 g of liver (gluconeogenesis; 0.3 mg/kg s.c.)	effect on new formation of glucose and glycogen (gluconeogenesis; 0.3 mg/kg s.c.)	Glycogen + glucose mg/100 g of liver (gluconeogenesis; 3.0 mg/kg s.c.)	Inhibition in % (rat croton oil ear edema; 0.1 mg/ml epicutaneous) [%]	x ± s (mg), weight difference of treated and untreated ear disks (rat croton oil ear edema; 0.1 mg/ml epicutaneous) [mg]	Inhibition in % (rat croton oil ear edema; 0.3 mg/ml epicutaneous) [%]	x ± s (mg), weight difference of treated and untreated ear disks (rat croton oil ear edema; 0.3 mg/ml epicutaneous) [mg]	Inhibition in % (rat croton oil ear edema; 1.0 mg/ml epicutaneous) [%]	x ± s (mg), weight difference of treated and untreated ear disks (rat croton oil ear edema; 1.0 mg/ml epicutaneous) [mg]	local antiinflammatory effect (rat croton oil ear edema)
C[C@H]1C[C@H]2[C@@H]3CCC4=CC(=O)C=C[C@]4(C)[C@@]3(F)[C@@H](O)C[C@]2(C)[C@@]1(OC(=O)c1ccccc1)C(=O)COC(=O)Cc1ccccc1 [Compound II, betamethasone 17-benzoate 21-phenylacetic ester]	0.56 ± 0.09	0.45 ± 0.14	weak	10.8 ± 1.3 n.s. mg/100 g of liver	still do not have any significant effect	81.2 ± 61.7 mg/100 g of liver	67	7.0 ± 3.3	77	4.9 ± 3.3	95	1.1 ± 0.9	strong
CCOC(=O)O[C@]1(C(=O)COC(=O)CC)CC[C@H]2[C@@H]3CCC4=CC(=O)C=C[C@]4(C)[C@H]3[C@@H](O)C[C@@]21C [Prednicarbate, prednisolone 17-ethyl carbonate 21-propionate, reference compound]	0.36 ± 0.13	0.09 ± 0.08	–	–	–	–	75	5.2 ± 3.3	88	2.6 ± 2.4	–	–	–
C[C@]12C=CC(=O)C=C1CC[C@@H]1[C@@H]2[C@@H](O)C[C@@]2(C)[C@H]1CC[C@]2(OC(=O)c1ccccc1)C(=O)COC(=O)Cc1ccccc1 [Compound I, prednisolone 17-benzoate 21-phenylacetic ester]	0.46 ± 0.19	0.38 ± 0.15	weak	20.4 ± 11.7 n.s. mg/100 g of liver	still do not have any significant effect	96.0 ± 26.2 mg/100 g of liver	76	5.0 ± 3.1	85	3.1 ± 2.5	91	2.0 ± 1.4	strong
